From patent publication US20100120736A1, “Mineralocorticoid Receptor Antagonists” (N.V. ORGANON, priority 2007, published 2010)

Legend:
[1] = target: T1, mineralocorticoid receptor (MR) (Rattus norvegicus, UniProt P22199); assay: In vitro binding to mineralocorticoid receptor (MR), displacement of tritiated aldosterone; conditions: read-out: Mineralocorticoid receptor Antagonist activity IC50
T1 sequence (P22199 1-981): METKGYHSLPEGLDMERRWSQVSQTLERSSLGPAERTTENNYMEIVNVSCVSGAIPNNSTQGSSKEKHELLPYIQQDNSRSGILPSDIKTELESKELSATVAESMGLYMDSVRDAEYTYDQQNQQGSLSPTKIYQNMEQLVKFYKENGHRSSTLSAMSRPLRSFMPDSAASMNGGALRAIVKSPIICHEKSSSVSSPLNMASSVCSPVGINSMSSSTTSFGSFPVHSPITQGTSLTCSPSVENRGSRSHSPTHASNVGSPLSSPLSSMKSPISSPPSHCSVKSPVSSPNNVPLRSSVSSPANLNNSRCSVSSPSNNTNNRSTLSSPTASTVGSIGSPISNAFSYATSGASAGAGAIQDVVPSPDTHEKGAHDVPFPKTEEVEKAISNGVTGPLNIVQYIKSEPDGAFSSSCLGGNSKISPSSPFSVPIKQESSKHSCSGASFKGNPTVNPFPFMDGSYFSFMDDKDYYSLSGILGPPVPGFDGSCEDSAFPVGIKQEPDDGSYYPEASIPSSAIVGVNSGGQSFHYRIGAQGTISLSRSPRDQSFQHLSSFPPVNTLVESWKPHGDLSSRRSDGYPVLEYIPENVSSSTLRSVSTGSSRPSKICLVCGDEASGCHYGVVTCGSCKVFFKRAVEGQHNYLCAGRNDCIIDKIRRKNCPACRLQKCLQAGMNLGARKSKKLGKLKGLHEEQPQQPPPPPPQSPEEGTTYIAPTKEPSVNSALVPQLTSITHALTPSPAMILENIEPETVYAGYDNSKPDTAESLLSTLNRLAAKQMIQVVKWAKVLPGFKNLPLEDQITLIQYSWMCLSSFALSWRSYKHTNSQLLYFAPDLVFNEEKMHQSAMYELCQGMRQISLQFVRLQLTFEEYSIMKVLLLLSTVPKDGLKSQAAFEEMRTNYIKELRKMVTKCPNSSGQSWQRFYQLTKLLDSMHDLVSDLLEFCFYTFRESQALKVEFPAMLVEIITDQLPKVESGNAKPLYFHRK
Description: In vitro binding to the mineralocorticoid receptor (MR) was essentially carried out as reported in the literature (C. E. Gomez-Sanchez and E. P. Gomez-Sanchez, Endocrinology 113 (1983) 1004-1009, Z. S. Krozowski and J. W. Funder, Proc. Natl. Acad. Sci. USA 80 (1983) 6056-; J. H. M. H. Reul and E. R. de Kloet, Endocrinology 117 (1985) 2505-2511; K. E. Sheppard and J. W. Funder, J. Steroid Biochem. 28 (1987) 737-742).
Male Wistar rats Were adrenalectomised and perfused with cold saline after 3 days of survival. Kidneys and hippocampi, respectively, were rapidly dissected and homogenized. A cylosolic fraction was prepared by centrifugation.
Unlabeled RU 28362 (10 nM), a specific GR binder, was added for saturating glucocorticoid receptors. Compounds to be tested, dissolved in DMF and diluted with water to obtain the required concentration, were added in an increasing concentration range (1.0-1000 nM) and allowed to incubate for 3 h. Incubations were terminated by adding dextran-coated charcoal suspension, followed by centrifugation. The supernatant was assayed with a scintillation counter for unbound labelled ligand.

SMILES | IC50 [1] [nM] | melting point [°C]
CC(=O)S[C@@H]1CC2=CC(=O)CC[C@]2(C)[C@H]2CC[C@@]3(C)[C@@H](CC[C@@]34CCC(=O)O4)[C@H]12 [Spironolactone, reference compound] | 6 | 
CC[C@H]1CC[C@H]2[C@@H]3CCC4=CC(=O)C=C[C@]4(C)[C@H]3[C@@H](O)C[C@]12C [synthetic example 14, (11β)-11-hydroxypregna-1,4-dien-3-one] | 0.12 | 
C=C(C)[C@H]1CC[C@H]2[C@@H]3C=CC4=CC(=O)CC[C@]4(C)[C@H]3[C@@H](O)C[C@]12C |  | 153 to 155

More lines, now with the values ahead:

IC50 [1] [nM] | melting point [°C] | SMILES
5 |  | C[C@]12C[C@H](O)[C@H]3[C@@H](CCC4=CC(=O)CC[C@@]43C)[C@@H]1CC[C@@H]2C(=O)CO [Corticosterone, reference compound]
0.44 |  | C=C(C)[C@H]1CC[C@H]2[C@@H]3CCC4=CC(=O)CC[C@]4(C)[C@H]3[C@@H](O)C[C@]12C [synthetic example 1, (11β)-11-hydroxy-20-methylpregna-4,20-dien-3-one]
